Test system: CD206+macrophages (MOs)
Test: CD206 targeting assay in monocyte-derived CD206+ macrophages (uptake, killing, apoptosis)
Format: cell-based
Settings: FIG. 17
Experimental: CD206 targeting assays were conducted using both in vitro monocyte-derived CD206+macrophages (MOs) and ex vivo fresh Kaposi Sarcoma (KS) tumor tissue (provided by the AIDS and Cancer Specimen Resource [ACSR]). Tilmanocept-Cy 3 with/without a chemo-therapeutic agent (CTA) attached (tilmanocept-Cy3-CTA or tilmanocept-Cy3) interactions with cellular and tumor targets were tracked by flow cytometry and immuno-histochemistry to evaluate Cy3-tilmanocept uptake and targeting capability for delivery of drug into KS tumor cells and TAMs.

COc1cccc2c1C(=O)c1c(O)c3c(c(O)c1C2=O)C[C@@](O)(C(=O)CO)C[C@@H]3O[C@H]1C[C@H](N)[C@H](O)[C@H](C)O1 [Docorubicin, doxorubicin]
toxicity to CD206 expressing macrophages (Annexin levels): no toxicity
effect on cells (apoptosis, cell loss) (compared with tilmanocept-Cy3-CTA): less effect

— US20220062448A1 (priority 2015, published 2022)
